# Laboratory results published in ChEMBL document CHEMBL3044681, “Piperamides and their derivatives as potential anti-trypanosomal agents” (Med Chem Res, 2009).
# Tested on: Trypanosoma cruzi
# Experiment: Antitrypanosomal activity against epimastigote forms of Trypanosoma cruzi Y after 72 hr
# Assay type: functional, organism-based
# Details: not given; call rule not given here
row,IC50,Structure (SMILES)
1,Not Active,COC(=O)/C=C/c1cc(OC)c(OC)c(OC)c1
2,Not Active,"CC(C)CNC(=O)/C=C/CCc1ccc2c(c1)OCO2 [4,5-DIHYDROPIPERLONGUMININE]"
3,Not Active,CC(C)CNC(=O)/C=C/c1ccc2c(c1)OCO2 [FOGARAMIDE]
4,Not Active,O=C(/C=C/CCc1ccc2c(c1)OCO2)N1CCCCC1 [PIPERANINE]
5,Not Active,O=C(O)/C=C/C=C/c1ccc2c(c1)OCO2 [PIPERIC ACID]
6,Not Active,COc1cc(/C=C/C(=O)O)cc(OC)c1OC [SINAPIC ACID METHYL ETHER]
7,Not Active,CCCCCCCCCC(=O)NCC(C)C [TETRAHYDROPELLITORINE]
8,Not Active,O=C(CCCCc1ccc2c(c1)OCO2)N1CCCCC1 [TETRAHYDROPIPERINE]
9,Not Active,COc1cc(CCC(=O)N2CCCCC2=O)cc(OC)c1OC [TETRAHYDROPIPLARTINE]

# Same assay, conditions: Trypanosoma cruzi, Y, 72 h; read-out: IC50
row,IC50,Structure (SMILES)
1,10.5 µM,COc1cc(/C=C\C(=O)N2CCC=CC2=O)cc(OC)c1OC [(Z)-PIPLARTINE]
2,57.1 µM,CCCCC/C=C/C=C/C(=O)NCC(C)C [PELLITORIN]
3,233 µM,O=C(/C=C/C=C/c1ccc2c(c1)OCO2)N1CCCCC1 [PIPERINE]
4,21 µM,COc1cc(/C=C/C(=O)N2CCC=CC2=O)cc(OC)c1OC [PIPLARTINE]
